# Data as given in the supplement of paper PMC10307832.
# Tests used:
# Assay in all cases: relative viability (nuclei count vs DMSO), 5 days (fraction); higher = more cells survive
# CUDC-101 + Navitoclax = compound: C#Cc1cccc(Nc2ncnc3cc(OC)c(OCCCCCCC(=O)NO)cc23)c1 [CUDC-101] + CC1(C)CCC(c2ccc(Cl)cc2)=C(CN2CCN(c3ccc(C(=O)NS(=O)(=O)c4ccc(N[C@H](CCN5CCOCC5)CSc5ccccc5)c(S(=O)(=O)C(F)(F)F)c4)cc3)CC2)C1 [Navitoclax] (partner 0.5 µM)
# Method in brief: (§1)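 Cells from lung cancer lines were seeded into 1536-well plates and, one day later, dosed by pin tool. Treatments were either a single drug or a fixed dose of an anchor drug with five library-drug doses (not always all listed) in √10 steps. After 5 days, nuclei were stained in a one-step fixation (final 0.05% Triton X-100, 1% formaldehyde, 1 ug/ml Hoechst) and counted on 4× images, and relative viability is the treated-to-vehicle nuclei ratio, as the median of duplicate plates.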
# NVP-TAE684 + Crizotinib = compound: COc1cc(N2CCC(N3CCN(C)CC3)CC2)ccc1Nc1ncc(Cl)c(Nc2ccccc2S(=O)(=O)C(C)C)n1 [NVP-TAE684] + C[C@@H](Oc1cc(-c2cnn(C3CCNCC3)c2)cnc1N)c1c(Cl)ccc(F)c1Cl [Crizotinib] (partner 1 µM)
# Method in brief: as §1
# [1] = compound: C1=CC=C2C(=C1)N=C(S2)C(C#N)C3=NC(=NC=C3)NCCC4=CN=CC=C4 + C[C@]1(O)C[C@@H](c2nc(-c3ccc4ccc(-c5ccccc5)nc4c3)c3c(N)nccn32)C1 [Linsitinib] (partner 1 µM)
# Method in brief: as §1
# Vandetanib + Tozasertib = compound: COc1cc2/c(=N/c3ccc(Br)cc3F)nc[nH]c2cc1OCC1CCN(C)CC1 [Vandetanib] + Cc1cc(Nc2cc(N3CCN(C)CC3)nc(Sc3ccc(NC(=O)C4CC4)cc3)n2)n[nH]1 [Tozasertib] (partner 0.1 µM)
# Method in brief: as §1
Cell Line,relative viability (CUDC-101 + Navitoclax; first compound 0.01 µM),relative viability (CUDC-101 + Navitoclax; first compound 0.03162 µM),relative viability (CUDC-101 + Navitoclax; first compound 0.1 µM),relative viability (CUDC-101 + Navitoclax; first compound 0.3162 µM),relative viability (CUDC-101 + Navitoclax; first compound 1 µM),relative viability (NVP-TAE684 + Crizotinib; first compound 0.2 µM),relative viability (NVP-TAE684 + Crizotinib; first compound 0.6325 µM),relative viability (NVP-TAE684 + Crizotinib; first compound 2 µM),relative viability ([1]; first compound 0.005 µM),relative viability ([1]; first compound 0.01581 µM),relative viability ([1]; first compound 0.05 µM),relative viability ([1]; first compound 0.1581 µM),relative viability ([1]; first compound 0.5 µM),relative viability (Vandetanib + Tozasertib; first compound 0.02 µM),relative viability (Vandetanib + Tozasertib; first compound 0.06325 µM),relative viability (Vandetanib + Tozasertib; first compound 0.2 µM),relative viability (Vandetanib + Tozasertib; first compound 0.6325 µM),relative viability (Vandetanib + Tozasertib; first compound 2 µM)
LOU-NH91,0.773,0.505,0.473,0.466,0.251,0.7,0.725,0.592,0.919,0.931,0.834,0.973,0.935,0.735,0.635,0.61,0.543,0.526
LU99A,0.857,1.07,0.728,0.642,0.159,0.651,0.576,0.262,0.517,0.517,0.553,0.611,0.553,0.253,0.33,0.251,0.261,0.3
LXF-289,0.952,0.966,0.911,0.932,0.753,0.852,0.791,0.706,0.853,1.01,1.05,1.04,0.92,0.242,0.241,0.215,0.176,0.193
NCI-H23,0.801,0.796,0.817,0.849,0.791,0.463,0.451,0.254,–,0.685,0.583,0.85,0.533,0.307,0.41,0.144,0.382,0.327
NCI-H322M,1.21,1.18,0.954,1.08,0.795,0.973,0.758,0.845,0.88,1.03,0.899,0.987,0.803,0.52,0.454,0.521,0.465,0.291
NCI-H441,0.875,0.57,0.545,0.795,0.392,0.661,0.659,0.315,–,0.499,0.533,0.617,0.447,0.744,0.668,0.283,0.853,0.768
NCI-H460,1.23,1.12,1.15,1.06,0.965,1.16,0.831,0.247,–,1.15,1.02,1.17,0.502,0.399,0.432,0.371,0.391,0.457
NCI-H520,1.04,–,1.03,0.987,0.316,0.668,0.651,0.348,0.552,0.97,0.923,1.11,0.735,0.437,0.414,0.482,0.432,0.501
NCI-H596,1.06,0.825,0.942,0.938,0.866,0.974,0.886,0.717,0.921,1.12,1.05,1.15,0.951,0.922,0.706,0.688,1.03,0.898
NCI-H647,1.2,1.01,1.11,1.09,0.844,0.959,0.983,0.172,–,1.17,1.16,1.25,0.976,0.265,0.2,0.141,0.221,0.255
NCI-H727,0.377,0.413,0.417,0.304,0.269,0.679,0.635,0.221,0.328,0.321,0.228,0.396,0.298,0.689,0.498,0.504,0.529,0.488
NCI-H838,1.23,1.1,1.3,1.21,0.985,0.962,0.78,0.522,0.713,1.08,0.957,1.03,0.874,0.264,0.273,0.193,0.253,0.229
NCI-H1355,1.01,0.735,0.939,0.825,0.73,1.09,0.978,0.568,0.764,0.849,0.847,1.05,0.714,0.614,0.519,0.562,0.494,0.516
NCI-H1437,1.13,1.07,1.22,1.16,0.931,0.818,1.06,0.795,0.789,1.23,1.09,1.11,0.692,0.408,0.402,0.134,0.402,0.389
NCI-H1651,1.13,0.938,1.22,1.04,0.887,0.893,0.836,0.836,0.695,0.846,1,1.18,0.921,0.68,0.688,0.14,0.854,0.686
NCI-H1666,1.07,0.796,1,1.04,0.548,1.07,0.841,0.526,0.81,0.846,0.722,0.91,0.766,0.606,0.581,0.387,0.577,0.633
